Assay results taken from patent US4421767A, “Compounds and methods for treating depression” (priority 1982, dated 1983).

Tests used:
[1] = In vitro decarboxylation by partially purified hog kidney AADC (HPLC); assay type: in vitro ADME; details: pig; hog kidney AADC, 37°, 2 hours, DL-mixture, HPLC; read-out: decarboxylation to the corresponding allylamine
Method: (§1) AFHBA was incubated with partially purified hog kidney AADC at 37° for various times up to 2 hours.

[2] = tested on: partially purified hog kidney AADC; test: as above; assay type: in vitro ADME; details: with 10 μM MFMD (AADC inhibitor)
Method: as §1

MAO [3] = test: In vitro MAO inhibition; assay type: biochemical
neuronal MAO [4] = test: Ex vivo MAO activity after i.p. injection in rats, neuronal MAO; parameters: species or system rat
Method: (§2) Rats were injected with AFHBA (0.5 mg/kg, i.p.) alone or with AFHBA (0.5 mg/kg, i.p.) in combination with MFMD (2.0 mg/kg, i.p.) administered 30 minutes before AFHBA. Animals were killed 18 hours later and MAO activity (5-HT and phenethylamine as substrates) was determined in brain, heart, and liver. In the brain, AFHBA administered alone inhibited neuronal MAO by 72% and non-neuronal MAO by 37%.
(§3) III. Rats were injected with AFMBA (100 mg/kg, i.p.) and were killed 18 hours later. MAO activity was determined in the brain, heart, and liver using 5-HT and PEA.

non-neuronal MAO [5] = test: Ex vivo MAO activity after i.p. injection in rats, non-neuronal MAO; parameters: species or system rat
Method: as §2, §3

MAO [6] = test: Ex vivo MAO activity in rats, protection by extracerebral AADC inhibitor; parameters: species or system rat; details: AFHBA 0.5 mg/kg i.p. + MFMD 2.0 mg/kg i.p. 30 min before, liver
Method: as §2
(§4) MAO activity was determined in the brain using 5-HT and phenethylamine (PEA) as substrates.

neuronal MAO [7] = test: Ex vivo brain MAO activity after oral gavage in rats, neuronal MAO; parameters: species or system rat; details: 18 hours
Method: as §4

non-neuronal MAO [8] = test: Ex vivo brain MAO activity after oral gavage in rats, non-neuronal MAO; parameters: species or system rat; details: 18 hours
Method: as §4

[9] = tested on: dopamine, DOPAC, 5-HT, and 5-HIAA concentrations in the brain; test: In vivo brain dopamine, DOPAC, 5-HT and 5-HIAA concentrations after i.p. injection in rats; parameters: species or system rat
Method: Rats were injected with AFHBA (0.5 mg/kg, i.p.) alone or with AFHBA (0.5 mg/kg, i.p.) in combination with MFMD (2 mg/kg, i.p.) or carbidopa (50 mg/kg, i.p.) given 30 minutes before the AFHBA. The rats were killed 18 hours later, and dopamine, DOPAC, 5-HT, and 5-HIAA concentrations were determined in the brain.

[10] = tested on: dopamine, DOPAC, 5-HT, and 5-HIAA concentrations in the brain; test: In vivo brain dopamine, DOPAC, 5-HT and 5-HIAA concentrations after oral dosing in rats; parameters: species or system rat; details: 18 hours
Method: In a separate experiment, rats were given AFHBA orally at various doses. The rats were killed 18 hours later and dopamine, DOPAC, 5-HT, and 5-HIAA concentrations were determined in the brain.

[11] = tested on: brain noradrenaline and 5-HT concentrations; test: Brain amine concentration after 5 days oral MAO inhibitor in rats (Table I); assay type: in vivo, rat; details: for Brain Amine Concentration, Noradrenaline / Brain Amine Concentration, 5-HT: 5 days
Method: On the 6th day, rats were anaesthetized and heart rate and blood pressure responses to tyramine (0.3-50 mg/kg) administered intraduodenally (i.d.) were determined. Additionally, monoamines and MAO activity were determined in various tissues including brain.

[12] = tested on: heart rate and blood pressure responses to tyramine; test: Potentiation of tyramine response after 5 days oral MAO inhibitor in rats (Table I); assay type: in vivo, rat; details: 5 days, tyramine i.d.
Method: (A) Rats were gavaged daily for 5 days with saline or 2-amino-4-fluoro-3-(3'-hydroxyphenyl)-3-butenoic acid (AFHBA) at dosages of 15.6, 62.5, 250, or 1000 μg/kg or with clorgyline at dosages of 1250 or 5000 μg/kg. On the 6th day, rats were anaesthetized and heart rate and blood pressure responses to tyramine (0.3-50 mg/kg) administered intraduodenally (i.d.) were determined. Additionally, monoamines and MAO activity were determined in various tissues including brain.

[13] = tested on: brain noradrenaline and 5-HT concentrations; test: Brain amine concentration, AFHBA with or without carbidopa pretreatment in rats (Table II); assay type: in vivo, rat; details: for Brain Amine Concentration, 5-HT / Brain Amine Concentration, Noradrenaline: 5 days
Method: (B) Rats were gavaged with saline or carbidopa given at dosage of 10 or 100 mg/kg. Thirty minutes later, the rats were gavaged with saline or AFHBA given at a dosage of 62.5 μg/kg. This treatment was repeated daily for 5 days. On the 6th day, the rats were anaesthetized and heart rate and blood pressure responses to tyramine (0.3-50 mg/kg, i.d.) were determined. Additionally, monoamines and MAO activity were determined in various tissues, including brain.

[14] = AFHBA 0.5 mg/kg i.p. + MFMD 2.0 mg/kg i.p. 30 min before, brain
[15] = AFHBA 0.5 mg/kg i.p. + MFMD 2.0 mg/kg i.p. 30 min before, heart
[16] = AFHBA alone 0.5 mg/kg i.p., 18 hours, brain
[17] = AFHBA alone 0.5 mg/kg i.p., 18 hours, heart
[18] = AFHBA alone 0.5 mg/kg i.p., 18 hours, liver
[19] = AFHBA 0.5 mg/kg i.p. + MFMD 2 mg/kg i.p. 30 min before
[20] = AFHBA 0.5 mg/kg i.p. + carbidopa 50 mg/kg i.p. 30 min before
[21] = AFHBA alone 0.5 mg/kg i.p., 18 hours
[22] = carbidopa 10000 μg/kg + AFHBA 62.5 μg/kg daily p.o.
[23] = carbidopa 100000 μg/kg + AFHBA 62.5 μg/kg daily p.o.
[24] = saline + AFHBA 62.5 μg/kg daily p.o.

NC(C(=O)O)C(=CF)c1cccc(O)c1 (racemic) [AFHBA, 2-Amino-4-fluoro-3-(3'-hydroxyphenyl)-3-butenoic acid]
metabolised at 2 h [1]: 50% | decarboxylation in the presence of MFMD [2]: no decarboxylation was observed | MAO inhibition in vitro (MAO [3]): inactive or very weak inhibitor | inhibition of neuronal MAO, brain, MFMD pretreatment (neuronal MAO [4]; [14]): 68% | inhibition of neuronal MAO, heart, MFMD pretreatment (neuronal MAO [4]; [15]): 18% | inhibition of neuronal MAO, brain (neuronal MAO [4]; [16]): 72% | inhibition of neuronal MAO, heart (neuronal MAO [4]; [17]): 52% | MAO inhibition, liver (neuronal) (neuronal MAO [4]; [18]): 29% | inhibition of non-neuronal MAO, brain, MFMD pretreatment (non-neuronal MAO [5]; [14]): 28% | inhibition of non-neuronal MAO, heart, MFMD pretreatment (non-neuronal MAO [5]; [15]): 4% | inhibition of non-neuronal MAO, brain (non-neuronal MAO [5]; [16]): 37% | inhibition of non-neuronal MAO, heart (non-neuronal MAO [5]; [17]): 44% | MAO inhibition, liver (non-neuronal) (non-neuronal MAO [5]; [18]): 38% | MAO inhibition, liver, MFMD pretreatment (MAO [6]): totally blocked MAO inhibition | % Inhibition of MAO, Neuronal (neuronal MAO [7]; 0.5 mg/kg oral): 63% | % Inhibition of MAO, Neuronal (neuronal MAO [7]; 1.0 mg/kg oral): 71% | % Inhibition of MAO, Neuronal (neuronal MAO [7]; 2.5 mg/kg oral): 95% | % Inhibition of MAO, Non-neuronal (non-neuronal MAO [8]; 0.5 mg/kg oral): 41% | % Inhibition of MAO, Non-neuronal (non-neuronal MAO [8]; 1.0 mg/kg oral): 64% | % Inhibition of MAO, Non-neuronal (non-neuronal MAO [8]; 2.5 mg/kg oral): 83% | % Change from Control, 5-HIAA [9, 19]: -48% | % Change from Control, 5-HT [9, 19]: +92% | % Change from Control, DOPAC [9, 19]: -92% | % Change from Control, Dopamine [9, 19]: +50% | % Change from Control, 5-HIAA [9, 20]: -37% | % Change from Control, 5-HT [9, 20]: +92% | % Change from Control, DOPAC [9, 20]: -89% | % Change from Control, Dopamine [9, 20]: +54% | % Change from Control, 5-HIAA [9, 21]: -34% | % Change from Control, 5-HT [9, 21]: +30% | % Change from Control, DOPAC [9, 21]: -76% | % Change from Control, Dopamine [9, 21]: +25% | % Change from Control, 5-HIAA ([10]; 0.5 mg/kg oral): -11% | % Change from Control, 5-HT ([10]; 0.5 mg/kg oral): +26% | % Change from Control, DOPAC ([10]; 0.5 mg/kg oral): -55% | % Change from Control, 5-HIAA ([10]; 1.0 mg/kg oral): -23% | % Change from Control, 5-HT ([10]; 1.0 mg/kg oral): +74% | % Change from Control, DOPAC ([10]; 1.0 mg/kg oral): -72% | % Change from Control, Dopamine ([10]; 1.0 mg/kg oral): +17% | % Change from Control, 5-HIAA ([10]; 2.5 mg/kg oral): -41% | % Change from Control, 5-HT ([10]; 2.5 mg/kg oral): +140% | % Change from Control, DOPAC ([10]; 2.5 mg/kg oral): -79% | % Change from Control, Dopamine ([10]; 2.5 mg/kg oral): +28% | Brain Amine Concentration, Noradrenaline ([11]; AFHBA 15.6 μg/kg daily p.o., saline 318 ± 12): 347 ± 9 ng/g | Brain Amine Concentration, 5-HT ([11]; AFHBA 15.6 μg/kg daily p.o., saline 507 ± 18): 530 ± 27 ng/g | Brain Amine Concentration, 5-HT ([11]; AFHBA 62.5 μg/kg daily p.o.): 531 ± 32 ng/g | Brain Amine Concentration, Noradrenaline ([11]; AFHBA 62.5 μg/kg daily p.o.): 391 ± 12 ng/g | Brain Amine Concentration, 5-HT ([11]; AFHBA 250 μg/kg daily p.o.): 1082 ± 98 ng/g | Brain Amine Concentration, Noradrenaline ([11]; AFHBA 250 μg/kg daily p.o.): 563 ± 23 ng/g | Brain Amine Concentration, 5-HT ([11]; AFHBA 1000 μg/kg daily p.o.): 1486 ± 67 ng/g | Brain Amine Concentration, Noradrenaline ([11]; AFHBA 1000 μg/kg daily p.o.): 650 ± 29 ng/g | brain noradrenaline and 5-HT concentrations (dose relation) ([11]; subacute treatment): dose-related increases in brain noradrenaline and 5-HT concentrations | Tyramine Potentiation ([12]; AFHBA 15.6 μg/kg daily p.o., some potentiation at lowest doses of tyramine (footnote c)): 1.0 | Tyramine Potentiation ([12]; AFHBA 62.5 μg/kg daily p.o.): 4.0 | Tyramine Potentiation ([12]; AFHBA 250 μg/kg daily p.o.): 7.1 | Tyramine Potentiation ([12]; AFHBA 1000 μg/kg daily p.o.): 7.7 | effect on brain monoamines, combination versus single agents ([13]; AFHBA 62.5 μg/kg + carbidopa 10 mg/kg): at least equivalent to 250 μg/kg of AFHBA given alone or to 5000 μg/kg of clorgyline | Brain Amine Concentration, 5-HT [13, 22]: 894 ± 25 ng/g | Brain Amine Concentration, Noradrenaline [13, 22]: 694 ± 24 ng/g | Brain Amine Concentration, 5-HT [13, 23]: 815 ± 35 ng/g | Brain Amine Concentration, Noradrenaline [13, 23]: 327 ± 23 ng/g | Brain Amine Concentration, 5-HT [13, 24]: 531 ± 32 ng/g | Brain Amine Concentration, Noradrenaline [13, 24]: 391 ± 12 ng/g
